Data: US6723747B2, “Substituted 6H-DiBenzo[c,h]chromenes as estrogenic agents” (Wyeth, priority 2001, dated 2004)

Columns and labels:
[1] = system: progesterone receptor mRNA in the preoptic area of the rat brain; experiment: Progesterone receptor mRNA regulation test procedure; format: in vivo; settings: 10 mg/kg, vehicle 189.2 ± 27.2
From the text: This test procedure can be used to evaluate the estrogenic or antiestrogenic activity of compounds from this invention [Shughrue, et al., Endocrinology 138: 5476-5484 (1997)].

[2] = target: T1, human ERβ (Homo sapiens, UniProt Q92731); experiment: Radioligand binding competition with [3H]-17β-estradiol, ERβ; settings: human ERβ ligand binding domain, read-out: ER-β IC50
T1 construct: M214-Q530 of human ERβ; Flag (C); made in house; host or cells: E. coli BL21(DE3), clarified lysate
T1 sequence (Q92731 214-530): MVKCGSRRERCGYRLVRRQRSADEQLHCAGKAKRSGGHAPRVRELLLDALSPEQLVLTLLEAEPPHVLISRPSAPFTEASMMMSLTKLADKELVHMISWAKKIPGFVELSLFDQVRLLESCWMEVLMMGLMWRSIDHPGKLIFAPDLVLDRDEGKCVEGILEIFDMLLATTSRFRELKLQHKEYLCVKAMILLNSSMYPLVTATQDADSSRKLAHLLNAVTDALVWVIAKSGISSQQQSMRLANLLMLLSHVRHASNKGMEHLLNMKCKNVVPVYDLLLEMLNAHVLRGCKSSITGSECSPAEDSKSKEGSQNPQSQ

[3] = system: HLA-B27 rats; experiment: HLA-B27 rat model of arthritis; format: in vivo; settings: 10 mg/kg orally once daily, Study 2
From the text: The degree of arthritis severity is monitored daily in terms of the following disease indices: Hindpaw erythema, hindpaw swelling, tenderness of the joints, and movements and posture. An integer scale of 0 to 3 is used to quantify the level of erythema (0=normal paw, 1=mild erythema, 2=moderate erythema, 3=severe erythema) and swelling (0=normal paw, 1=mild swelling, 2=moderate swelling, 3=severe swelling of the hind paw). The maximal score per day is 12.
Evaluation in the HLA-B27 Rat model of arthritis. Representative compounds of the invention were evaluated in the HLA-B27 rat standard pharmacological test procedure which emulates arthritis in humans. The following briefly describes the procedure used and results obtained. Male HLA-B27 rats (8-10 weeks old) were obtained from Taconic and provided unrestricted access to a food (PMI Lab diet 5001) and water. Rats were dosed orally once daily with either vehicle (2% tween-80/0.5% methylcellulose) or test compound (10 mg/kg) for 26 days. Joint scores and histology are evaluated as described above for the Lewis rat model of adjuvant-induced arthritis.

[4] = system: 129 SvE mice; experiment: Mouse uterotrophic test procedure (Procedure 2); format: in vivo; settings: 50 mg/kg subcutaneously, 4 days, immature mice; first experiment, vehicle 9.5 ± 0.3
Description: Procedure 2: Sexually immature (18 days of age) 129 SvE mice were obtained from Taconic and provided unrestricted access to a casein-based diet (Purina Mills 5K96C) and water. On day 22, 23, 24 and 25 the mice were dosed subcutaneously with compound or vehicle (corn oil). There were six mice/group and they were euthanized approximately 6 hours after the last injection by CO2 asphyxiation and pneumothorax. Uteri were removed and weighed after trimming associated fat and expressing any internal fluid. The following results (Table (2)) were obtained for representative compounds from the invention.

[5] = system: Lewis rats; experiment: Lewis rat adjuvant-induced arthritis, inhibition test procedure; format: in vivo; settings: 10 mg/kg sc daily from Day 1
[6] = system: casein kinase II mRNA; experiment: Mammary end bud test procedure (rat mammotrophic assay); format: in vivo; settings: 20 mg/kg sc + progesterone 30 mg/kg; ovariectomized rats; vehicle 1.61 ± 0.36
Description: Estrogens are required for full ductal elongation and branching of the mammary ducts, and the subsequent development of lobulo-alveolar end buds under the influence of progesterone. In this test procedure, the mammotrophic activity of selected compounds of the invention was evaluated according to the following standard pharmacological test procedure. Twenty-eight day old Sprague-Dawley rats (Taconic Farms, Germantown, N.Y.) were ovariectomized and rested for nine days. […] For the final three days, rats were also dosed subcutaneously with progesterone (30 mg/kg). On the seventh day, rats were euthanised and a mammary fat pad excised. This fat pad was analyzed for casein kinase II mRNA as a marker of end bud proliferation. Casein kinase II mRNA was anlayzed by real-time RT-PCR. Briefly, RNA was isolated following Trizol (GibcoBRL, Grand Island, N.Y.) according to the manufacture's directions, Samples were treated with DNAse I using DNA-free kit (Ambion), and casein kinase II mRNA levels were measured by real-time RT-PCR using the Taqman Gold procedure (PE Applied Biosystems). […] Casein kinase II mRNA levels were normalized to 18s ribosomal RNA contained within each sample reaction using primers and probe supplied by PE Applied Biosystems. The following results were obtained for an example of the invention (Table (4)).

## N#Cc1cc2c(c3ccc(O)cc13)OCc1cc(O)ccc1-2 [Example 1d, 2,8-Dihydroxy-6H-dibenzo[c,h]chromene-12-carbonitrile]
other
  melting point: > 250 °C
[1]
  Progesterone receptor mRNA (mean ± stdev): 403.9 ± 19.1 arbitrary units
[2]
  IC50: 1.8 nM
[3]; day 1, vehicle 0
  joint inflammation score: 0
[3]; day 2, vehicle 0
  joint inflammation score: 0
[3]; day 3, vehicle 0
  joint inflammation score: 0
[3]; day 4, vehicle 0
  joint inflammation score: 0
[3]; day 5, vehicle 0
  joint inflammation score: 0
[3]; day 6, vehicle 0
  joint inflammation score: 0
[3]; day 7, vehicle 0
  joint inflammation score: 0
[3]; day 8, vehicle 2.5
  joint inflammation score: 2
[3]; day 9, vehicle 3.75
  joint inflammation score: 1.25
[3]; day 10, vehicle 2.75
  joint inflammation score: 1
[3]; day 11, vehicle 3.5
  joint inflammation score: 0
[3]; day 12, vehicle 1.25
  joint inflammation score: 0.5
[3]; day 13, vehicle 1.25
  joint inflammation score: 0.25
[3]; day 14, vehicle 1.25
  joint inflammation score: 0
[3]; day 15, vehicle 5.25
  joint inflammation score: 0.25
[3]; day 16, vehicle 4.5
  joint inflammation score: 1
[3]; day 17, vehicle 3.5
  joint inflammation score: 1
[3]; day 18, vehicle 3.75
  joint inflammation score: 0.5
[3]; day 19, vehicle 5.5
  joint inflammation score: 0.75
[3]; day 22, vehicle 3.25
  joint inflammation score: 0.25
[3]; day 23, vehicle 6.5
  joint inflammation score: 2
[3]; day 24, vehicle 6.5
  joint inflammation score: 2
[3]; day 25, vehicle 6.25
  joint inflammation score: 2
[3]; day 26, vehicle 7
  joint inflammation score: 1.75
[4]
  mean uterine weight ± SEM: 9.8 ± 0.5 mg
[5]; day 1, vehicle 0.00
  joint inflammation score (maximal score per day 12): 0.00
[5]; day 2, vehicle 0.00
  joint inflammation score (maximal score per day 12): 0.00
[5]; day 3, vehicle 4.50
  joint inflammation score (maximal score per day 12): 2.66
[5]; day 4, vehicle 5.50
  joint inflammation score (maximal score per day 12): 1.83
[5]; day 5, vehicle 9.33
  joint inflammation score (maximal score per day 12): 2.66
[5]; day 6, vehicle 10.50
  joint inflammation score (maximal score per day 12): 2.16
[5]; day 7, vehicle 10.60
  joint inflammation score (maximal score per day 12): 2.00
[5]; day 8, vehicle 11.00
  joint inflammation score (maximal score per day 12): 1.66
[5]; day 9, vehicle 11.50
  joint inflammation score (maximal score per day 12): 2.00
[5]; day 10, vehicle 11.33
  joint inflammation score (maximal score per day 12): 2.00
[5]; day 11, vehicle 10.83
  joint inflammation score (maximal score per day 12): 1.66
[5]; day 12, vehicle 10.83
  joint inflammation score (maximal score per day 12): 1.66
[5]; day 13, vehicle 11.00
  joint inflammation score (maximal score per day 12): 2.16
[5]; day 14, vehicle 11.00
  joint inflammation score (maximal score per day 12): 2.00
[5]; day 15, vehicle 11.00
  joint inflammation score (maximal score per day 12): 2.00
[5]; day 16, vehicle 11.00
  joint inflammation score (maximal score per day 12): 1.00
[5]; day 17, vehicle 10.50
  joint inflammation score (maximal score per day 12): 1.33
[6]
  Casein kinase II mRNA/18S rRNA (mean ± SEM): 1.4 ± 0.7
